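Each compound was tested at five concentrations against cells in 96-well plates for 48 hours. The concentration for 50% growth inhibition is given as GI50. TGI: concentration producing complete growth inhibition.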 Bounds are passed on as bounds.

Holding throughout (assay): inhibition of tumour cell growth, NCI panel, 48 h
For test [1], the system named is SK-MEL-2 melanoma.
The test system of test [2] is NCI-H460 lung.
Test [3] relates to HCC-2998 colon.
In test [4] the test system is U251 CNS.
Test [5] concerns BT-549 breast.
The subject of test [6] is SW-620 colon.
Test [7] has as its system MOLT-4 leukemia.
Test [8] concerns PC-3 prostate.
Test [9] relates to SK-MEL-5 melanoma.
Test [10] concerns HL-60(TB) leukemia.

For the compound `Clc1ccc(-c2c3c(nn2-c2ccccn2)CCc2ccccc2-3)cc1Cl`, the GI50 in test [1], in [2], in test [3], in test [4], in test [5] and in test [6] was more than 100 µM throughout. Moreover, the GI50 in [7], in test [8] and in test [9] was more than 100 µM in each case. For the same compound, the TGI in test [1], in [2], in test [3], in test [4], in [5] and in test [6] was more than 100 µM throughout. For the same compound, the TGI in test [7], in test [8] and in test [9] was more than 100 µM in each case.

For the compound `COC(=O)c1cc(O)c2cc3c(cc2c1-c1cc(OC)c(OC)c(OC)c1)OCO3`, the GI50 in test [1] was 0.4 µM; in test [2], 0.686 µM; in test [3], 6.85 µM; in test [4], 0.577 µM; in test [5] it was 7.87 µM; in [6], 0.496 µM. For the same compound, the GI50 in [8] is 2.01 µM; in test [9], 0.891 µM. The TGI in test [1] is 6.21 µM; in [2], more than 100 µM; in [3] it was more than 100 µM; in [4], more than 100 µM; in test [5] it was more than 100 µM; in test [6], more than 100 µM. Moreover, the TGI in [8] and in [9] was more than 100 µM in each case.

On to `CCOC(=O)c1cc2c(cc1Cl)SC(N(c1ccc(OC)cc1)S(=O)(=O)c1ccc(Cl)cc1)=NS2(=O)=O`, for which the GI50 in test [1] was 24.7 µM; in test [10] it was 36.6 µM; in [2] it was 37.3 µM; in test [3] it was more than 100 µM; in test [4], 29.1 µM; in [6] it was 27.6 µM. Besides, the GI50 in test [7] is 30.7 µM; in [8], 20 µM; in test [9] it was 21.2 µM. The TGI is more than 100 µM in [1]; more than 100 µM in test [10]; more than 100 µM in test [2]; more than 100 µM in test [3]; 88.4 µM in [4]; 72.8 µM in [6]. Also, the TGI in [7] is more than 100 µM; in test [8] it was 58.6 µM; in test [9], 54.4 µM.

For `[N-]=[N+]=NC(c1cn(C2CC(O)C(CO)O2)c(=O)[nH]c1=O)C(Cl)I` (stereo not given), the TGI in test [1], in [2], in test [3], in test [4], in [5] and in test [6] was more than 100 µM in each case. Besides, the TGI in test [7] and in [9] was more than 100 µM in each case.

On to `C#CCSc1cc(Cl)c(C)cc1S(=O)(=O)Nc1nc2ccccc2o1`, for which the GI50 in test [1] was 21.6 µM; in test [2] it was 37.5 µM; in test [3] it was 22.5 µM; in [4], 38.5 µM; in test [5], 27.8 µM; in test [6], 46.7 µM. Moreover, the results for the GI50 in test [7], in test [8] and in test [9] were 41.8 µM, 32.6 µM and 20.5 µM, respectively. The TGI in [1] is 43.6 µM; in test [2], more than 100 µM; in test [3], 48.3 µM; in test [4] it was more than 100 µM; in test [5], 65.5 µM; in test [6] it was more than 100 µM. Also, the TGI in test [7] was more than 100 µM; in test [8] it was more than 100 µM; in test [9] it was 40.2 µM.

In the case of `CCOC(=O)C1c2[nH]c3ccccc3c2CCN1C(=O)c1ccc(OC)o1` (stereo not given), the TGI in test [1], in test [10], in test [2], in test [3], in test [4] and in test [6] was more than 10 µM each time. In addition, the TGI in test [7], in test [8] and in [9] was more than 10 µM in each case.

For `Cc1ccc(/C(O)=C/C(=O)C(=O)NC23CC4CC(CC(C4)C2)C3)cc1`, the TGI in [10], in test [3], in test [6], in test [7], in test [8] and in test [9] was more than 10 µM in each case.

Regarding `COc1cc(C2SCC(=O)N2c2ncc(C)s2)cc(OC)c1OC` (stereo not given), the GI50 in test [1] was more than 50 µM; in [10] it was 28.7 µM; in [2], 25.7 µM; in test [4], 18.1 µM; in [5] it was 37.5 µM; in test [6], 21.4 µM. The GI50 in test [7] is 22.5 µM; in [8] it was 31.4 µM; in [9] it was 17.3 µM. Further, the TGI in test [1], in test [10], in [2], in [4], in test [5] and in test [6] was more than 50 µM in each case. Also, the TGI in [7], in test [8] and in [9] was more than 50 µM each time.

Take `O=C(c1ccccc1)C1OC1c1ccc([N+](=O)[O-])cc1` (stereo not given): the GI50 in test [1] was 5.88 µM; in [2] it was 10 µM; in [3], 11 µM; in test [4], 9.86 µM; in [5], 5.47 µM; in test [6] it was 2.42 µM. The GI50 in test [8] is 9.9 µM; in test [9] it was 3.81 µM. The TGI in [1] was 34.9 µM; in test [2], 40.2 µM; in [3], 26.1 µM; in test [4] it was more than 100 µM; in test [5], 44.3 µM; in [6], 6.6 µM. For the same compound, the results for the TGI in [8] and in [9] were more than 100 µM and 16.7 µM, respectively.

For the compound `CO/N=C(\C)c1ccc(Nc2cc(-c3ccccc3)nc3ccc(OC)cc23)cc1`, the GI50 in test [1] was 6.27 µM; in [2] it was 6.69 µM; in test [3], 3.16 µM; in test [4], 2.05 µM; in test [5] it was 5.61 µM; in test [6], 3.4 µM. The GI50 in test [7] is 3.38 µM; in [8] it was 4.17 µM; in test [9] it was 1.77 µM. Further, the TGI in [1] was more than 100 µM; in test [2], more than 100 µM; in [3], 15.9 µM; in [4] it was 4.79 µM; in [5], 21.4 µM; in [6] it was 11.9 µM. The TGI in test [7] came out at 25.2 µM; in test [8] it was 16.2 µM; in test [9], 3.31 µM.

In the case of `COc1ccc(C2SCC(=O)N2NC(=O)c2ccc(NC(C)=O)cc2)c(OC)c1` (stereo not given), the TGI in [1], in test [10], in test [2], in [3], in [4] and in test [5] was more than 100 µM each time. The TGI in [6], in [7] and in [9] was more than 100 µM throughout.

`O=C(Nc1ccc(Cl)c(Cl)c1)Nc1c(Oc2ccc(Cl)c(Cl)c2)ccc(Cl)c1S(=O)(=O)O`: the GI50 in test [2] is 3.01 µM; in test [3] it was 2.11 µM; in test [4], 3.16 µM; in test [5], 1.71 µM; in test [6], 1.27 µM; in [7] it was 4.1 µM. In addition, the GI50 is 3.59 µM in test [8] and 1.33 µM in test [9]. For the same compound, the TGI in test [2], in test [3], in test [4], in test [5], in test [6] and in test [7] was more than 100 µM throughout. Further, the TGI was more than 100 µM in test [8] and 3.11 µM in [9].

For the compound `O=C1C=CC(=Nc2cc(Br)c(O)c(Br)c2)C=C1`, the GI50 in test [1] was 23 µM; in test [10], 7.65 µM; in test [2] it was 27.2 µM; in test [3] it was 17.5 µM; in test [4] it was 17.8 µM; in [5], 16.4 µM. Besides, the GI50 was 15.8 µM in test [6], 8.71 µM in test [7] and 15.6 µM in test [9]. For the same compound, the TGI in [1] worked out at 75.2 µM; in test [10], 51.2 µM; in [2] it was 84.9 µM; in [3], 34.6 µM; in test [4], 99.1 µM; in [5], 74.8 µM. Moreover, the TGI in test [6] was more than 100 µM; in test [7], more than 100 µM; in test [9], 32.1 µM.

In the case of `Nc1nc2c(ncn2C2C=CC(CO)C2)c(=O)[nH]1` (stereo not given), the TGI in test [1], in test [2], in test [3], in [4], in test [5] and in [6] was more than 100 µM in each case. Moreover, the TGI in test [8] and in test [9] was more than 100 µM each time.

As to `NCC1OC(n2cnc3c(N)ncnc32)CC1O` (stereo not given), the TGI in [1], in test [10], in test [2], in test [4], in test [5] and in [6] was more than 100 µM each time. Besides, the TGI in test [7], in test [8] and in test [9] was more than 100 µM throughout.
